The values that follow come from publication PMC3525952 (Planta medica, 2008).

For series [1], the target named is CB1 receptor (Homo sapiens, UniProt P21554). The series is described as follows: Radioligand.
Series [2] addresses AChE EC 3.1.1.7 (Homo sapiens, UniProt P22303). The series can be described thus: Spectrophotometric AChE inhibition assay. Format: biochemical.
The target of series [3] is CB2 receptor (Homo sapiens, UniProt P34972). The series is described as follows: Radioligand.
For series [4], the system named is rhinovirus 2 (HRV-2). The series is described as follows: Cytopathic effect. Format: cell-based, human rhinovirus. Particulars: for IC50: read-out: HRV (experimental result, activity class); for antiviral activity against HRV-2 (in words): HeLa cells, non-cytotoxic concentrations.
The nature of series [5]: Cytotoxicity on HeLa cell monolayers. Particulars: human, confluent HeLa cell monolayers. Format: cell-based.
The test system of series [6] is HeLa cell monolayers. The series is described as follows: Cytotoxicity on HeLa cell monolayers. Format: cell-based. To be noted: HeLa cells; for CC50: 72 h incubation, two independent tests.
Where [7] appears, read: AChE (experimental result, activity class), Table 5 overview.
Where [8] appears, read: AChE IC50 ± SD, in vitro, modified Ellman's method, 96-well microplate, n = 4.
Setting [9] is: CB2 (experimental result, activity class), Table 5 overview.
Setting [10] is: hCB2 Ki ± SD, displacement of [3H]CP-55,940, Cheng-Prusoff.
Setting [11] is: read-out: AChE (experimental result, activity class), Table 5 overview.
Where [12] appears, read: read-out: hCB2 Ki ± SD, displacement of [3H]CP-55,940, Cheng-Prusoff.
Where [13] appears, read: read-out: CB2 (experimental result, activity class), Table 5 overview.

In brackets after ≈: the same amount, converted by molar mass. Read-outs that look alike come from different tables or passages of the source.

CB1 receptor, sequence (P21554 whole entry): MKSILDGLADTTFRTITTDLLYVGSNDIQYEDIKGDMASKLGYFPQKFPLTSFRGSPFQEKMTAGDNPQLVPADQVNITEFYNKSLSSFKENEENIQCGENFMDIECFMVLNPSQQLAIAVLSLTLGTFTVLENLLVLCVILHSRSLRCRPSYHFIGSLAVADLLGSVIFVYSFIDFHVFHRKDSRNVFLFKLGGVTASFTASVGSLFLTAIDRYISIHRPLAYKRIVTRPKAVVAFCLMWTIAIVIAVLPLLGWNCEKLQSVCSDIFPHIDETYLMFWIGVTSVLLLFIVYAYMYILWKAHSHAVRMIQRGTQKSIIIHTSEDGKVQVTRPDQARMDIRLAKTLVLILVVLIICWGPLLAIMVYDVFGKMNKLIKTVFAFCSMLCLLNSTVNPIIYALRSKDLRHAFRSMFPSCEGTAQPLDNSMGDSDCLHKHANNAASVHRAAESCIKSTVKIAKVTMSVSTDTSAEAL
CB2 receptor, sequence (P34972 whole entry): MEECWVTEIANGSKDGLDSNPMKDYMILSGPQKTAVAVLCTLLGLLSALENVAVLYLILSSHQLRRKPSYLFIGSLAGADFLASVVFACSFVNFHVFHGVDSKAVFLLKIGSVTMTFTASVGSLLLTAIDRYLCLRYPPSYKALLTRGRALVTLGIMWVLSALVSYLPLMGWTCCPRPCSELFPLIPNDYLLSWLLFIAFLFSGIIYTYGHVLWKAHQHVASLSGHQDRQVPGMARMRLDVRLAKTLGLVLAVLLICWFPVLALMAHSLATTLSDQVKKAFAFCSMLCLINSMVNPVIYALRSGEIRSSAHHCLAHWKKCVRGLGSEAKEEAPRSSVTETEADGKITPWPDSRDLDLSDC
AChE EC 3.1.1.7, sequence (P22303 32-614): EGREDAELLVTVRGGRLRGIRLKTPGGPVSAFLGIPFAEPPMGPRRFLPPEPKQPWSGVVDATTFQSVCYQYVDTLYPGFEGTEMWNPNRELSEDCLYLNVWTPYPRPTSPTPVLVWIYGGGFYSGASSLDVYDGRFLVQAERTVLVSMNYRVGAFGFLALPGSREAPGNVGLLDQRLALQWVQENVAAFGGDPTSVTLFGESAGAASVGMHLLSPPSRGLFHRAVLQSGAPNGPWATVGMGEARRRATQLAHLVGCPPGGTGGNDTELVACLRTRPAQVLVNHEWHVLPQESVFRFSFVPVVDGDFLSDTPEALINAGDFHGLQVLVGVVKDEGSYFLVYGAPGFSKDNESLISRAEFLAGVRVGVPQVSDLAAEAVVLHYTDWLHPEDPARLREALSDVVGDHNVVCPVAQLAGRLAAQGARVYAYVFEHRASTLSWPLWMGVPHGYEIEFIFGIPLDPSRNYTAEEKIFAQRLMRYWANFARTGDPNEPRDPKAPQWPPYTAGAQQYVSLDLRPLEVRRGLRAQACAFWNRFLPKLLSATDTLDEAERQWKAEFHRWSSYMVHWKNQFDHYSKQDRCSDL

Regarding `C=CC(C)(C)c1cc2cc3c(cc2oc1=O)OC(C(C)(C)OC(C)=O)C3` (centres unmarked) [Compound 3, rutamarin], the Ki in series [1] was above 100 µM; in series [3] (setting [9]), below 10 µM; in series [3] (CB2 Ki, displacement of [3H]CP-55,940), 7.41 µM; in series [3] (setting [10]), 7.4 ± 0.6 µM. Also, the IC50 in series [2] (setting [7]) and in series [2] (setting [8]) was above 500 µM each time. For the same compound, the “binding affinity to the CB receptors (in words)” value in series [3] (radioligand displacement assay) is on record as “selective affinity to the CB2 receptor”. The “HRV (experimental result, activity class)” value in series [4] (Table 5 overview) is reported as “cytotoxic”. Also, it took 0.9 µg/mL (≈ 2.53 µM) to reach half-maximal cytotoxicity in series [5] (CC50 at 72 h). For the same compound, the “cytotoxicity (in words)” value in series [6] is given as “pronounced cytotoxicity”.

Consider `COc1c2occc2cc2ccc(=O)oc12` [Compound 7, 8-methoxy psoralene], for which the IC50 in series [2] (setting [7]) and in series [2] (setting [8]) was above 500 µM each time.

Regarding `COc1ccc2ccc(=O)oc2c1` [Compound 12, 7-methoxycoumarin], the IC50 in series [2] (setting [7]) and in series [2] (setting [8]) was above 500 µM each time.

In the case of `COc1cc2ccc(=O)oc2c(OC)c1OC` [Compound 13, 6,7,8-trimethoxycoumarin], the “AChE inhibiting activity (in words)” value in series [2] is recorded as “Modest effects”. Besides, the IC50 was 200 to 500 µM in series [2] (setting [7]); 396 ± 68.5 µM in series [2] (setting [8]); 10 to 20 µM in series [4] (Enterovirus, HRV2, HeLa). For the same compound, the “antiviral activity against HRV-2 (in words)” value (“antiviral activity” for short) in series [4] is “most active antiviral constituents”. The CC50 at 72 h in series [5] was above 50 µg/mL.

For `O=c1ccc2cc3ccoc3cc2o1` [Compound 5, psoralen], the IC50 in series [2] (setting [7]) and in series [2] (setting [8]) was above 500 µM each time.

`Cc1cc(CCCOc2c(C)cc(-c3noc(C(F)(F)F)n3)cc2C)on1` [Pleconaril, reference compound] showed a CC50 at 72 h in series [5] of 12.6 µg/mL (≈ 33 µM).

Turning to `COC(=O)CCc1cc2ccoc2c(OC)c1O` [Compound 16, Methyl 3-(6-hydroxy-7-methoxybenzofuran-5-yl)propanoate], the IC50 was above 500 µM in series [2] (setting [8]); above 500 µM in series [2] (setting [11]); 20 to 100 µM in series [4] (Enterovirus, HRV2, HeLa). Besides, the “antiviral activity” value in series [4] was “Weak, but significant and dose-dependent antiviral activities”. The same compound came in with a CC50 at 72 h in series [5] above 50 µg/mL.

Consider `O=c1cc(-c2ccc3c(c2)OCO3)[nH]c2ccccc12` [Compound 11, norgraveoline], for which, in series [2], the “AChE inhibiting activity (in words)” value is listed as “Modest effects”. Moreover, the IC50 is 50 to 200 µM in series [2] (setting [11]) and above 100 µM in series [4] (Table 5 overview). This compound registered a CC50 in series [6] of 32.2 µg/mL (≈ 121 µM).

For the compound isoplatydesmin [Compound 9], the “AChE inhibiting activity (in words)” value in series [2] was “Modest effects”. Also, the Ki in series [3] (setting [12]) is above 100 µM.

In the case of `Cn1c2c(c(=O)c3ccccc31)CC(O)C(C)(C)O2` (centres unmarked) [Compound 8, S-ribalinine], the IC50 in series [2] (setting [11]) is above 500 µM; in series [4] (Table 5 overview), 20 to 100 µM. The Ki in series [3] (setting [13]) and in series [3] (setting [12]) was above 100 µM in each case. Further, the “antiviral activity” value in series [4] is “Weak, but significant and dose-dependent antiviral activities”. In series [6], this compound displayed a CC50 above 50 µg/mL.

Consider `COc1cc2c(c(O)c1OC)c(=O)c1ccccc1n2C` [Compound 1, arborinine], for which the Ki in series [1], in series [3] (setting [9]) and in series [3] (setting [10]) was above 100 µM in each case. Besides, the “AChE inhibiting activity (in words)” value in series [2] was “strongest AChE inhibiting activity”. Further, the IC50 was below 50 µM in series [2] (setting [7]); 34.7 ± 7.1 µM in series [2] (setting [8]); below 10 µM in series [4] (Enterovirus, HRV2, HeLa). Besides, the “antiviral activity” value in series [4] is on record as “most active antiviral constituents”. Also, the CC50 at 72 h in series [5] was above 50 µg/mL.

For the compound `COC(=O)C1OC1c1cc(OC)c(O)c(OC)c1` (centres unmarked) [Compound 15, Methyl 3-(4-hydroxy-3,5-dimethoxyphenyl)oxirane-2-carboxylate], in series [2] (setting [8]), the IC50 is above 500 µM. In series [5], this compound returned a CC50 at 72 h above 50 µg/mL.

With `CC(C)=CCOc1c2ccoc2cc2oc(=O)ccc12` [Compound 4, isoimperatorine], the IC50 in series [2] (setting [7]) and in series [2] (setting [8]) was above 500 µM throughout.

With `COc1cc2cc(Oc3ccc4ccc(=O)oc4c3)c(=O)oc2cc1OC` [Compound 2, daphnoretin methyl ether], the IC50 in series [2] (setting [11]) is above 500 µM; in series [4] (Table 5 overview), 20 to 100 µM. The “antiviral activity” value in series [4] was “Weak, but significant and dose-dependent antiviral activities”. Further, the CC50 in series [6] is above 50 µg/mL.

As to `COC(=O)CC(O)c1cc(OC)c(O)c(OC)c1` (centres unmarked) [Compound 14, Methyl 3-hydroxy-3-(4-hydroxy-3,5-dimethoxyphenyl)propanoate], the IC50 in series [2] (setting [8]) was above 500 µM; in series [2] (setting [11]) it was above 500 µM; in series [4] (Enterovirus, HRV2, HeLa) it was above 100 µM. Also, the CC50 at 72 h in series [5] is above 50 µg/mL.

As for `COc1c(C[C@@H](O)C(C)(C)O)c(=O)n(C)c2ccccc12` [Compound 10, (−)-edulinine], the IC50 in series [2] (setting [11]) was above 500 µM. In addition, the Ki in series [3] (setting [13]) and in series [3] (setting [12]) was above 100 µM throughout.

In the case of `CCCCCc1cc(O)c2c(c1)OC(C)(C)c1ccc(C)cc1-2` [Cannabinol, reference compound], the results for the Ki in series [1] and in series [3] (setting [10]) were 0.42 ± 0.13 µM and 0.12 ± 0.01 µM, respectively.

For `COc1c2ccoc2cc2oc(=O)ccc12` [Compound 6, bergapten], the IC50 in series [2] (setting [7]) and in series [2] (setting [8]) was above 500 µM in each case.
